≈ marks a conversion by molar mass, not a printed value. Where “and” joins values, the source holds several entries; their conditions need not be identical. Equal values may be shown once.
Legend:
U2OS = test: MTT assay, bone (U2OS); assay type: cell-based, human
Experimental: (§1) Cells. HTB-9 (bladder), HeLa-S3 (cervix), DU145 (prostate), H460 (lung), MCF-7 (breast), K562 (leukemia), HCT116 (colon), HepG2 (liver), U2OS (bone), T98G (brain), SK-MEL-5 (Skin) and OVCAR 3, ES2 (ovary), Pancreas (Capan), Mouth (KB), Kidney(A498).
(§2) MTT Assay. The procedure for MTT assay followed the method described by Carmichael et al. (1987) with modifications. The cells were seeded into a 96-well plate at for 24 hours before drug-treatment. The cells were then exposed to the drugs for 48, 72, or 96 hours. After the drug-treatment, MTT (0.5 mg/mL) was added to cultures and incubated for an hour. The formazan (product of the reduction of tetrazolium by viable cells) formed and was dissolved with DMSO and the O.D. at 490 nm, and was measured by an ELISA reader. The MTT level of the cells before drug-treatment was also measured (T0). The % cell-growth (%G) is calculated as: %G = (TD-T0 / TC-T0) x 100(1), where TC or TD represents O.D. readings of control or drug-treated cells. When T0 > TD, then the cytotoxicity (LC) expressed as % of the control is calculated as: %LC = (TD-T0 / T0) × 100(2).

Hey8A cells = test: Inhibition of cell adhesion, Hey8A; assay type: cell-based; conditions: 5 ug/ml, 5 hours
Experimental: Methods and Results. ES2 or Hey8A cells were plated in T25 flasks with medium containing 5 ug/ml of compounds selected from structure (2A) including E4A-Tig-R, E4A-Tig-V, E4A-Tig-S, E4A-Tig-N, E4A-Tig-Q, E4A-Tig-T. Cultures were incubated for 5 hours. Attached cells were removed from flasks by trypsinization and the numbers/amounts were counted. Compared to no drug controls, 80 ± 4% of ES2 cells and 60 ± 4% of Hey8A cells were found attached to flasks under this condition. At 5 ug/ml of above compounds, over 90% of unattached cells are alive as determined by the trypan Blue exclusion assay and by their ability to re-attach to flasks when plating in medium without tested compounds. However, with 10 ug/ml tested compounds, less than 40% of cells attached to flasks and many of them are dead cells.

A498 = test: MTT assay, kidney (A498); assay type: cell-based, human
Experimental: as §1, §2

HepG2 = test: MTT assay, liver (HepG2); assay type: cell-based, human
Experimental: as §1, §2

HCT116 = test: MTT assay, colon (HCT116); assay type: cell-based, human
Experimental: as §1, §2

cancer cells = test: Inhibition of cancer growth, cancer invasion, cell invasion or cancer cell invasion; assay type: cell-based
MCF-7 = test: MTT assay, breast (MCF-7); assay type: cell-based, human
Experimental: as §1, §2

OVCAR3 = test: MTT assay, ovary (OVCAR3); assay type: cell-based, human; conditions: for IC50 of ovary (OVCAR3): MTT
Experimental: as §1, §2

DU145 = test: MTT assay, prostate (DU145); assay type: cell-based, human
Experimental: as §1, §2

ES2 = test: MTT assay, ovary (ES2); assay type: cell-based, human
Experimental: as §1, §2
Method: A. Cells • -WI38 is a Normal Lung fibroblast. Cells were grown in MEM medium supplemented with 10% FCS, antibiotics and glutamine. 20 K cells were seeded per well (96-welled plate) for one day before drug-treatment • -ES2 is an Ovary Clear cells carcinoma. Cells were grown in RPMI-1640 medium supplemented with 10% FCS, antibiotics and glutamine. 10 K cells were seeded per well (96-welled plate) for one day before drug-treatment.
B. Drug treatment: • -Drug: Tig-S. stored as 1000x stock solution in DMSO. • -Drug concentration used: from 0.15 - 20 ug/ml. • -Drug-treatment was carried out for 2 days (ES2) or 6 days (WI38). For the 6 days incubation, cells were fed with fresh medium (with drug) on day 3 and 5.
C. At the end of the drug-treatment, cytotoxic test was performed with MTT assay.

K562 = test: MTT assay, leukemia (K562); assay type: cell-based, human
Experimental: as §1, §2

HeLa = test: MTT assay, cervix (HeLa); assay type: cell-based, human
Experimental: as §1, §2

Row | Molecule | IC50 of bone (U2OS) (U2OS) [µg/mL] | Hey8A cells attached to flasks compared to no drug controls (Hey8A cells) [%] | IC50 of kidney (A498) (A498) [µg/mL] | IC50 of liver (HepG2) (HepG2) [µg/mL] | IC50 of colon (HCT116) (HCT116) [µg/mL] | anti-cancer activity (cancer cells) | IC50 of breast (MCF-7) (MCF-7) [µg/mL] | IC50 of ovary (OVCAR3) (OVCAR3) [µg/mL] | IC50 of prostate (DU145) (DU145) [µg/mL] | IC50 of ovary (ES2) (ES2; MTT) | IC50 of leukemia (K562) (K562) [µg/mL] | IC50 of cervix (HeLa) (HeLa) [µg/mL] | IC50, ovarian cancer (OCAR3) cells' growth (OVCAR3; FIG. 37) [µg/mL] | IC50, ES2 cells (ES2; 2 days drug treatment, MTT) [µg/mL] | IC100, ES2 cells (ES2; MTT OD after treatment equal to OD before treatment, 2 days) | IC50 in ES2 cells (ES2; MTT assay with low doses of Tig-S) [µg/mL] | % of the control cell growth, ES2 (ES2; at 10 ug/ml) [%] | MTT OD as % of the original value, ES2 (ES2; at 10 ug/ml) [%]
1 | 24,28-O-Tigloyl-3β,16α, 21β, 22a, 24β, 28-hexahydroxyolean-12-ene [Tig-R] | 4.5 | 60 ± 4 | 3.5 | 6 | 5.2 | have anti-cancer activities | 4.5 | 5.8 | 3.6 | 2.8 ug/ml and about 2.8 ug/ml | 2 |  |  |  |  |  |  | 
2 | CC=C(C)C(=O)OCC1(C)C(O)CCC2(C)C1CCC1(C)C2CC=C2C3CC(C)(C)C(O)C(O)C3(CO)C(O)CC21C (stereo not shown) [Tig-N] | 15 | 60 ± 4 | 11 | 18 | 15 | have anti-cancer activities | 13 | 18 | 4.8 | 9 µg/mL | 6 | 15 |  |  |  |  |  | 
3 | CC=C(C)C(=O)OCC1(C)C(O)CCC2(C)C1CCC1(C)C2CC=C2C3CC(C)(C)C(OC(=O)C(C)=CC)C(O)C3(CO)C(O)CC21C (stereo not shown) [Tig-S] | 5.2 | 60 ± 4 | 4.8 | 8.5 | 6.6 | have anti-cancer activities | 6.3 | 6.5 | 4.3 |  | 4.3 | 7 | 2.5 (≈ 3.73 µM) | 0.3 (≈ 0.447 µM) | 0.16 to 0.3 µg/mL and 0.15 to 0.3 µg/mL | ~0.1 (≈ 0.149 µM) | 10 | 12
4 | CC=C(C)C(=O)OCC1(C)C(O)CCC2(C)C1CCC1(C)C2CC=C2C3CC(C)(C)C(O)C(OC(=O)C(C)=CC)C3(COC(=O)C(C)=CC)C(O)CC21C (stereo not shown) [Tig-T] | 20 | 60 ± 4 | 15 | 26 | 23 | have anti-cancer activities | 20 | 25 | 16 | 14 µg/mL | 9 | 18 |  |  |  |  |  | 
